One data set in a line: in vitro. As to conditions: PAMPA. (In general: In PAMPA a lipid-coated filter parts donor from acceptor wells.)
The conditions of data set [1]: PAMPA, 5 h, 200 µM.
Description: (§5) The HPLC system consisted of an Agilent 1200 series HPLC system with a binary gradient pump, autosampler and vacuum degasser coupled to an Agilent 1200 series variable-wavelength detector (Santa Clara, CA, USA). The analyses were carried out with Venusil XBP C18 column (4.60 mm × 150 mm, 5 μm, Bonna-Agela Technologies, Wilmington, DE, USA). […] The effluent was monitored at 276 nm. […] The effluent was monitored at 280 nm. A volume of 20 µL of the samples was injected into the HPLC system.
(§6) The precoated parallel artificial membrane permeability assay (PAMPA) plate system was obtained from BD Biosciences. Prior to use, the pre-coated PAMPA plates were warmed to room temperature for at least 30 min. Once warmed to room temperature, the plate system was used within 24 h. A volume of 300 µL of the test compound solution in potassium phosphate buffer (100 mM, pH 6.4, 7.4 and 7.8) or in sodium acetate buffer (50 mM, pH 3.7, 4.7 and 5.7) was added per well in the receiver/donor plate (bottom). The final concentration of the test compounds was 200 µM in each well. A volume of 200 µL of potassium phosphate buffer (100 mM, pH 6.4, 7.4 and 7.8) or sodium acetate buffer (50 mM, pH 3.7, 4.7 and 5.7) was then added per well to the filter/acceptor plate (top). The filter plate was placed on the receiver plate by slowly lowering the precoated PAMPA plate until it was seated on the receiver plate. The assembly was incubated at room temperature for 5 h. The precoated PAMPA plate and the receiver plate were separated. The compound concentrations were determined using the HPLC system described above. The permeability values are given as mean ± standard deviation of triplicate determinations [38].
The subject of data set [2] is striatal monoamines and metabolites. As to conditions: for concentration reached in the brain: mouse, in vivo.
Description: The delivery of dopamine by the prodrug was thus indirectly assessed by measuring dopamine levels in the striatal tissue of mice following treatment with the prodrug. For this purpose, the measurement of dopamine metabolites and other monoamine neurotransmitters and their metabolites was also included. […] Another four groups (n = 3 mice/group) were treated in the same manner by intraperitoneal injection. The animals were sacrificed 60 min after treatment, the striata were dissected and the concentrations of dopamine, 3,4-dihydroxyphenylacetic acid (DOPAC), homovanillic acid (HVA), noradrenaline, serotonin and 5-hydroxyindoleacetic acid (HIAA) were measured [40].
Male C57BL/6 mice were weighed and allocated into 4 groups of 3 mice each. […] A second set of 4 groups (n = 3) were treated in the same manner by intraperitoneal injection. All solutions were prepared in sterile saline and administered at volumes of 0.1 mL for oral gavage and 0.2 mL for intraperitoneal injection. The animals were euthanised 60 min after treatment and the striata were dissected and stored at −80 °C until the day of the experiment. The concentrations of dopamine, 3,4-dihydroxyphenylacetic acid (DOPAC), homovanillic acid (HVA), noradrenaline, serotonin and 5-hydroxyindoleacetic acid (5-HIAA) were determined according to the published protocol, and are reported as mean ± standard deviation of each group [40]. Prism version 5 (GraphPad Software, San Diego, CA, USA) was used for the statistical analyses and for the preparation of graphical presentations. Data were analysed by one-way analysis of variance (ANOVA) across all groups, and were subsequently subjected to the Dunnett’s post-hoc test to determine statistical differences between the means. A p-value of <0.05 indicates a statistically significant difference.
On the set-up of data set [3]: method as in PMID 20646792. To be noted: after oral administration of L-dopa prodrugs to rats; cited from earlier work.
On the set-up of data set [4]: method as in PMID 19930170. To be noted: mice; oral administration of L-dopa and carbidopa; cited from earlier work.
The conditions of data set [5]: cited from earlier work.
A further data set is described as follows: MTT cell viability assay. It counts as cell-based, human. As to conditions: human, HeLa cells, read-out: percentage of viable cells remaining. The source says:
(§1) For this purpose, the MTT cell viability assay was used. The MTT assay is a standard cell viability assay, measuring mitochondrial activity in live (metabolically viable) cells. Metabolically active mitochondria in viable cells have the ability to reduce MTT to coloured formazan crystals that can be quantitated spectrophotometrically. The presence of a toxic agent will reduce cell viability and thus limit the reduction of MTT to the formazan product. For this study, HeLa cells were selected. This selection was based on the high growth rate of HeLa cells and on the observation that these cells are frequently used to measure cell viability in the presence of toxic agents.
(§2) HeLa cells were maintained in 250 cm^2 flasks in 30 mL Dulbecco’s Modified Eagle Medium (DMEM) containing 10% fetal bovine serum, 1% penicillin (10,000 units/mL)/streptomycin (10 mg/mL) and 0.1% fungizone (250 µg/mL). The cells were incubated at 37 °C in an atmosphere of 10% CO2. Once confluent, the cells were seeded at 500,000 cells/well in 24-well plates and incubated for 24 h. A volume of 3 mL trypsin/EDTA (0.25%/0.02%) was used to facilitate cell detachment and the counting of cells was done with a haemocytometer. The wells were subsequently rinsed with 0.5 mL DMEM containing no fetal bovine serum. A volume of 0.99 mL DMEM (containing no fetal bovine serum) was subsequently added to each well followed by 10 µL of the test drug. Stock solutions of the test drugs were prepared in deionised water and sterilised via a 0.22 µm syringe filter. In each 24-well plate, wells were reserved as positive controls (100% cell death via lyses with 0.3% formic acid) and negative controls (0% cell death as a result of no treatment). The well-plates were incubated for a further 24 h after which the culture medium was aspirated from the cells. The wells were washed twice with 0.5 mL/well phosphate-buffered saline (PBS) and 200 µL of 0.05% MTT reagent (3-(4,5-dimethylthiazol-2-yl)-2,5-diphenyltetrazolium bromide) in PBS was added to each well. The well-plates were incubated at 37 °C for 2 h in the dark, the MTT reagent was aspirated from the wells and 250 µL isopropanol was added to each well. The well-plates were then incubated at room temperature for 5 min to dissolve the purple formazan crystals, whereafter 100 µL of the isopropanol phase was transferred to a 96-well plate. The absorbance of each isopropanol phase was measured spectrophotometrically at 560 nm.

The next data set relates to HeLa cells. Kind of data set: MTT cell viability assay. Format: cell-based, human. To be noted: 100 µM, 24 h.
Description: as §1, §2
On the technique in general: Tetrazolium dyes change colour on reduction, which living cells bring about.

Data set [6] in a line: Plasma stability, human plasma. It counts as in vitro ADME. To be noted: 37 °C, approx. 200 µM spiked. How it is done: (§3) The effluent was monitored at 276 nm. […] The effluent was monitored at 280 nm.
(§4) Plasma was collected in 0.5 mL MiniCollect® heparin plasma tubes (Greiner Bio-One, Kremsmünster, Austria) and centrifuged at 5500 rpm. Liver and brain tissue were collected, placed on ice and rinsed with 0.25 M sucrose dissolved in water. Sucrose solution was added to the tissue at a ratio 1:3 (w/v), the tissues were cut into small pieces using scissors and homogenised by 2 passes (60 s each) using a Potter–Elvehjem homogeniser (1200 rev/min, Potter–Elvehjem, Kennesaw, GA, USA). Care was taken to cool the homogeniser in ice during this procedure. […] The stock solution was immediately diluted to approximately 200 µM into plasma or tissue homogenate (preheated to 37 °C) and the resulting mixtures were analysed by the HPLC method described above. For this purpose, 100 µL of the spiked plasma or tissue homogenate was added to 300 µL acetonitrile (containing formic acid 1%) in a Phree tube. The tube was vortexed for 2 min and filtered under vacuum (9–10 mmHg). The collected solvent was evaporated under a stream of air, and the residue was redissolved in 100 µL methanol. A volume of 300 µL water was added and 20 µL of the resulting solution was analysed by the HPLC system. […] The concentration of lazabemide was also determined.

Data set [7] is described as follows: Chemical stability in aqueous buffer (HPLC). Format: physicochemical. As to conditions: 50 µM, room temperature. How it is done:
as §3
The stock solution was immediately diluted to 50 µM and the resulting solution was analysed by the HPLC method described above. The first injection served as reference point, after which the same solution was again injected at 1 h, 3 h, 6 h, 9 h and 11 h. During this time, the test solution remained at room temperature in the autosampler tray. The stabilities of the prodrug in the selected buffer phases are reported as the percentage mean ± standard deviation of the first injection, which served as reference point.

The nature of data set [8]: Shake-flask logD determination (n-octanol/buffer). As to conditions: n-octanol/potassium phosphate buffer 100 mM.
Description: (§7) n-Octanol (analytical reagent from Sigma-Aldrich) and the appropriate buffer were mutually saturated in a separatory funnel. Potassium phosphate buffer (100 mM) at pH 6.4, 7.4 and 7.8 served as the aqueous buffer phases. […] The vessels were shaken by hand for 5 min and centrifuged at 4000× g for 10 min. […] The logD value at a given pH is equal to the logarithm of the octanol/buffer partition coefficients (D). […] LogD values are given as mean ± standard deviation of triplicate determinations. Using the same protocol as above, the logD values at pH 6.4, 7.4 and 7.8 for lazabemide were also determined.
A short description of data set [9]: Ionisation constant (pKa) by potentiometric titration. It counts as physicochemical. How it is done: The prodrug was titrated in 0.1 mL increments and the pH was recorded after each addition. A total of 1 mL KOH was added to fully neutralise the primary amine group of the prodrug. The results were subsequently tabulated according to the method described in literature, and the pKa value was calculated.

A short description of data set [10]: Tissue stability, rat liver homogenate. Format: in vitro ADME. As to conditions: 37 °C. The protocol:
as §3, §4

Data set [11] is described as follows: Plasma stability, rat plasma. It counts as in vitro ADME. As to conditions: 37 °C, approx. 200 µM spiked. How it is done:
as §3, §4

Data set [12] can be described thus: Solubility in water and potassium phosphate buffer. It counts as physicochemical. As to conditions: thermodynamic from solid, 37 °C. How it is done: This yielded a theoretical concentration of 6.0 mg/mL. The tubes were agitated for 24 h in a water bath at 37 °C and were subsequently centrifuged at 16,000× g for 10 min. The samples were filtered through a 0.22 µm syringe filter and diluted 150-fold into water or potassium phosphate buffer (100 mM, pH 7.4). The absorbances of the resulting solutions were recorded at a wavelength of maximal absorbance of 276 nm.

For a further data set, the system named is brain MAO-B. As to conditions: cited from earlier work.

Converted amounts (≈) assume the structure as drawn. Where two headings read alike, the source gives them in different places. Some results are limits rather than exact numbers.

By Papp is commonly meant a coefficient for how fast a substance crosses the barrier. Broadly, the logD is lipophilicity at a set pH, counting ionised and neutral species. For orientation: pKa means the negative logarithm of the acid dissociation constant. Lower therefore signals a group that gives up its proton readily. As a reminder, the solubility is the concentration that dissolves in the medium under given conditions.

Description for in vitro: as §5, §6
Description for physchem: as §7

For the molecule `N[C@@H](Cc1ccc(O)c(O)c1)C(=O)O` [L-Dopa], the Papp at 5 h, 200 µM in “in vitro” (pH 3.7) is 0.0102 ×10⁻⁶ cm/s; in the data set “in vitro” (pH 4.7), 0.00891 ×10⁻⁶ cm/s; in “in vitro” (pH 5.7), 0.00603 ×10⁻⁶ cm/s; in “in vitro” (pH 6.4), 0.0024 ×10⁻⁶ cm/s; in the data set “in vitro” (pH 7.4), 0.00676 ×10⁻⁶ cm/s; in “in vitro” (pH 7.8), 0.00275 ×10⁻⁶ cm/s. Also, the logPe entry in [1] is listed as “smaller than −7.99”. Also, the “concentration reached in the brain” value in [2] is reported as “too low to be reliably detected”. The “plasma half-life of L-dopa” value in [3] is 0.85 to 1.62 h. In addition, in data set [4], the “time to peak plasma levels” value is 30 to 60 min. For the same molecule, in data set [5], the half-life result was “approximately 90 min”. The “fraction of the administered oral dose reaching the brain unchanged” value in data set [5] (oral, estimated) was “less than 1%”. Moreover, in “MTT cell viability assay”, the viability at 24 h, 1 µM was determined as 102 ± 4.19%. For the same molecule, the viability at 24 h, 10 µM in “MTT cell viability assay” stood at 105 ± 5.24%. Moreover, in the data set “MTT cell viability assay”, the viability at 24 h, 100 µM was determined as 79%. Besides, in the data set with HeLa cells, the “percentage of viable cells remaining” value came to 79.3 ± 13.0%.

For the molecule `N[C@@H](Cc1ccc(O)c(O)c1)C(=O)NCCNC(=O)c1ccc(Cl)cn1` [L-dopa–lazabemide prodrug], the apparent permeability coefficient (Papp) at 5 h, 200 µM is 0.00955 ×10⁻⁶ cm/s in the data set “in vitro” (pH 3.7); 0.0155 ×10⁻⁶ cm/s in “in vitro” (pH 4.7); 0.0195 ×10⁻⁶ cm/s in “in vitro” (pH 5.7); 0.0195 ×10⁻⁶ cm/s in the data set “in vitro” (pH 6.4); 0.0295 ×10⁻⁶ cm/s in the data set “in vitro” (pH 7.4); 0.0468 ×10⁻⁶ cm/s in the data set “in vitro” (pH 7.8). The prodrug concentration remaining in data set [6] (17 h) is 64 to 68 µM; in [7] (pH 7.8, 11 h, relative to first injection), 90.3%; in [11] (17 h) it was 70.5 µM. The stability in plasma result in data set [6] (up to 8 h) is recorded as “stable”; in data set [11] (up to 8 h), “relatively stable”. For the same molecule, the “chemical stability in aqueous buffer” value in data set [7] (pH 3.7–7.4, up to 11 h) is reported as “stable”. The logD in [8] (n-octanol/potassium phosphate buffer, pH 7.4, LogD, pH 7.4) is 0.199 ± 0.002; in data set [8] (n-octanol/potassium phosphate buffer, pH 7.8, LogD, pH 7.8), 0.319 ± 0.003; in data set [8] (pH 6.4), < 0; in [8] (pH 6.4, listed as Prodrug), “–4.58 ± 0.002”. In addition, the pKa in [9] (amine group, titration with KOH in water) amounted to 7.25 ± 0.16. In addition, the “fraction existing as neutral uncharged species” value in data set [9] (pH 5.5) was 1–2%; in [9] (pH 7.4), “approximately 59%”. The half-life at 200 µM in data set [10] (approximate, read-out: t½) is ~1 h. Also, the prodrug remaining in data set [10] (4 h incubation) is listed as 37%. Also, the “striatal DOPAC levels” value in data set [2] (63.5 µmol/kg intraperitoneal, 60 min, vs saline) is recorded as “significant reduction”. Further, the “striatal serotonin and 5-HIAA levels” value in data set [2] (63.5 µmol/kg oral gavage or ip, 60 min) is on record as “not altered”. For the same molecule, the striatal dopamine levels entry in data set [2] (63.5 µmol/kg oral gavage or ip, 60 min, vs saline) was “does not enhance”. The “concentration reached in the brain” value in data set [2] was “too low to be reliably detected”. In addition, the solubility at 24 h was 6140 ± 730 µg/mL (≈ 16.2 mM) in data set [12] (aqueous buffer, potassium phosphate buffer pH 7.4, 6000 μg/mL theoretical, 24 h, read-out: Solubility, Amount Measured); 6280 ± 747 µg/mL (≈ 16.6 mM) in data set [12] (water, 6000 μg/mL theoretical, 24 h, read-out: Solubility, Amount Measured); ≥ 6000 µg/mL in [12] (water and potassium phosphate buffer, aqueous buffer, water and buffer pH 7.4, read-out: minimum solubility). Further, the viability at 24 h, 1 µM in the data set “MTT cell viability assay” stood at 112 ± 12%. In addition, the viability at 24 h, 10 µM in the data set “MTT cell viability assay” was 52.1 ± 14%. In addition, the viability at 24 h, 100 µM in “MTT cell viability assay” came to 35%. For the same molecule, the “percentage of viable cells remaining” value in the data set on HeLa cells turned out to be 34.9 ± 7.94%.

Consider `NCCNC(=O)c1ccc(Cl)cn1` [Lazabemide], for which the Papp at 5 h, 200 µM in the data set “in vitro” (pH 3.7) is 0.0427 ×10⁻⁶ cm/s; in “in vitro” (pH 4.7) it was 0.0871 ×10⁻⁶ cm/s; in the data set “in vitro” (pH 5.7), 0.148 ×10⁻⁶ cm/s; in “in vitro” (pH 6.4), 0.355 ×10⁻⁶ cm/s; in “in vitro” (pH 7.4), 1.62 ×10⁻⁶ cm/s; in “in vitro” (pH 7.8) it was 2.14 ×10⁻⁶ cm/s. The logD is -1.18 in “physchem” (pH 6.4, LogD); -0.68 in “physchem” (pH 7.4, LogD); -0.63 in the data set “physchem” (pH 7.8, LogD). The “concentration reached in the brain” value in data set [2] was “too low to be reliably detected”. Further, in the data set on brain MAO-B (MAO-B), the “time for enzyme activity to return to baseline after drug discontinuation” value is ≤ 36 h. The “inhibition of brain MAO-B” value in the data set on brain MAO-B (at least 0.4 mg/kg every 12 h, patients with early Parkinson’s disease) is > 90%.

The values above are taken from PMC6150007 (Molecules : A Journal of Synthetic Chemistry and Natural …, 2017).
